Data as given in patent publication US7259144B2, “Methods for diagnosing and treatment of hyperphosphatemic conditions using FGF20 polypeptides” (CuraGen Corporation, priority 2003, dated 2007).

Legend:
[1] = tested on: Caco2 cells; test: Caco2 cell proliferation (3H thymidine incorporation) with FGF-20 and kinase inhibitors; type: cell-based; settings: inhibitor added 1 hr before FGF-20 (100 ng/ml), PD098059 1, 5, 20, 40 μM, SB203580 1, 10, 20 μM
Method: FIG. 7 depicts effect of kinase inhibitors in the proliferation of Caco2 cells. Caco2 cells were incubated with FGF-20 (100 ng/ml) in the presence of various concentrations (1, 5, 20 and 40 μM) of PD098059, inhibitor of MEK which is upstream of ERK or various concentrations (1, 10, 20 μM) of SB203580, inhibitor of p38 MAPK inhibitor.
In addition to the above results, MEK inhibitor PD098059 (1, 5, 20, and 40μM CALBIOCHEM, CA), and p38 MAPK inhibitor SB203580 (1,10,20 μM CALBIOCHEM, CA) were added to the Caco2 cell cultures 1 hr before FGF-20 treatment. Cellular proliferation was tested by standard 3H thymidine incorporation assay known in the art.

[2] = Serum phosphate levels after CG53135-05 treatment, Rhesus monkey model; type: in vivo; settings: slow bolus i.v. once daily, 1, 10 mg/kg, dose-dependent (FIG. 2)
Method: (§1) To evaluate the role of FGF20 in reduction of phosphate levels, two different animal models (rat and rhesus monkeys) were tested for serum phosphates following treatment with FGF20. Recombinant human FGF20 and the serum phosphate levels were measured. General protocols for the rat and Rhesus monkey models are outlined in the following Tables 1 (for the rat) and 2 (for the Rhesus monkey) below:
(§2) Both animal groups were dosed via a slow bolus intravenous injection in the tail vein, once daily for 14 days. The first day of dosing was designated as study day (“SD”) 1. Animals were dosed through SD 14.

[3] = tested on: NIH 3T3 cells; test: Induction of DNA synthesis (BrdU incorporation) in NIH 3T3 cells; type: cell-based; settings: serum-starved NIH 3T3 cells; 18 h factor, 4 h BrdU incorporation
Method: Receptor Specificity NIH 3T3 cells were cultured in 96-well plates to approximately 100% confluence, washed and fed with DMEM without supplements (Life Technologies), and incubated for 24 h. Recombinant CG53135-01 or control protein was then added to the cells for 18 h. Control proteins used were aFGF (positive control) and platelet derived growth factor-BB (PDGFBB) (negative control). To analyze the effect of soluble FGFRs on CG53135-05 activity, recombinant CG53135-05, aFGF, or PDGF-BB (final concentrations of 10, 5 and 3 ng/mL, respectively), were mixed with soluble receptors (final concentrations of 0.2, 1 and 5 ug/mL), and incubated for 30 min at 37° C. prior to addition to serum-starved NIH 3T3 cells. Factor concentrations represent the amount of ligand needed to generate a half maximal BrdU response in NIH 3T3 cells. Soluble FGFRs were Fc chimeras of the following receptor forms (FGFR1β(IIIc); FGFR2β(IIIb); FGFR2α(IIIb); FGFR2α(IIIc); FGFR3α(IIIc); FGFR4) and were obtained from R&D Systems (Minneapolis, Minn.). The BrdU assay was performed according to the manufacturer's specifications (Roche Molecular Biochemicals, Indianapolis, Ind.) using a 4 h BrdU incorporation time.

[4] = tested on: Caco2 cells; test: Expression of signal transducing kinases in Caco2 cells with FGF-20; type: cell-based
Method: FIG. 4 depicts effect of FGF20 (CG53135) in stimulation of kinases in Caco2 cells. Expression of signal transducing kinases was analyzed after incubation of Caco2 cells with FGF-20 (100 ng/ml) for different time points (10, 30, 60 mins).
(§3) FIG. 6 depicts Effect of FGF-20 on expression of kinases in intestinal epithelial cells. Caco2 cells were incubated with FGF-20 (100 ng/ml) for 10, 30, 60 minutes and expression of p-Elk-1, p-ATF-2 and p-PKC was analyzed. Similarly, HT-29 cells were incubated with FGF-20 (100 ng/ml) for 10, 30, 60 minutes and expression of C-Fos and C-Jun was analyzed.
(§4) MAPK-dependent mechanism may be involved in the regulation of phosphate uptake by FGF signaling. To test this hypothesis, various kinases were tested for their expression in the presence of 100 ng/ml of FGF-20, in Caco2 cells. […] In HT-29 cells, C-Fos and C-Jun were induced, when cultured with FGF-20 (FIG. 6).

[5] = Serum phosphate levels after CG53135-05 treatment, rat model; type: in vivo; settings: slow bolus i.v. once daily, 0.05, 5, 50 mg/kg, dose-dependent (FIG. 1)
Method: as §1, §2

[6] = tested on: HT-29 cells; test: Expression of C-Fos and C-Jun in HT-29 cells with FGF-20; type: cell-based; settings: 100 ng/ml, 10, 30, 60 minutes
Method: as §3, §4

[7] = tested on: OK cells; test: Phosphate uptake in OK cells; type: cell-based, opossum; settings: at 50 ng/ml
Method: FIG. 8 depicts effect of FGF9 protein in phosphate transport. OK cells were treated with various concentrations of FGF9 protein and phosphate uptake was measured as noted in Example 6.
FIG. 9 depicts effect of FGF10 protein in phosphate transport. OK cells were treated with various concentrations of FGF10 protein and phosphate uptake was measured as noted in Example 6.
Measurement of phosphate transport is performed in cultured renal proximal tubular epithelial cell line using opossum kidney (OK) cells, in the presence of FGF-20 (CG53135-05). Briefly, OK cells are grown at 37° C. in Dulbecco's modified Eagle's medium with 10% fetal calf serum and seeded in multi-well dishes (6, 24, 96 well dishes). The phosphate uptake in OK cells is determined according to the method described by Hafdi et al (Biochem. J. 1996, 320:615-621).
Role of FGF9 and FGF10 in phosphate uptake was measured by the method described in Biochem. J. 1996, 320:615-621.

Molecule: COc1cccc(-c2cc(=O)c3ccccc3o2)c1N [PD098059]
- cellular proliferation (3H thymidine incorporation) [1]: decrease in cellular proliferation

Molecule: C[S+]([O-])c1ccc(-c2nc(-c3ccncc3)c(-c3ccc(F)cc3)[nH]2)cc1 (stereo not drawn) [SB203580]
- cellular proliferation (3H thymidine incorporation) [1]: decrease in cellular proliferation

Molecule: CG53135-05: Recombinant human fibroblast growth factor 20 produced in E. coli; Swiss-Prot Q9NP95; SEQ ID NO:1
- serum phosphate levels [2]: Statistically significant reductions
- amount of ligand needed to generate a half maximal BrdU response [3]: 10 ng/mL
- expression of other kinases tested ([4]; 100 ng/ml, 10, 30, 60 mins): no other kinase tested, showed any significant induction
- phosphorylated MAPK (p-p38MAPK) expression ([4]; 100 ng/ml, 10, 30, 60 mins): induced
- expression of phosphorylated ATF-2 ([4]; 100 ng/ml, 10, 30, 60 minutes): increased expression
- expression of phosphorylated Elk-1 ([4]; 100 ng/ml, 10, 30, 60 minutes): increased expression
- expression of phosphorylated Protein Kinase C ([4]; 100 ng/ml, 10, 30, 60 minutes): minimal induction
- serum phosphate levels [5]: Statistically significant reductions
- C-Fos expression [6]: induced
- C-Jun expression [6]: induced

Molecule: aFGF: positive control protein; factor known to interact with all of the FGFR's under analysis [reference compound]
- amount of ligand needed to generate a half maximal BrdU response [3]: 5 ng/mL

B1: FGF10: human FGF 10 protein, Swiss-Prot Accession No: O15520 (protein, UniProt O15520 38-208, looked up)
Fibroblast growth factor 10: QALGQDMVSPEATNSSSSSFSSPSSAGRHVRSYNHLQGDVRWRKLFSFTKYFLKIEKNGKVSGTKKENCPYSILEITSVEIGVVAVKAINSNYYLAMNKKGKLYGSKEFNNDCKLKERIEENGYNTYASFNWQHNGRQMYVALNGKGAPRRGQKTRRKNTSAHFLPMVVHS
- phosphate transport [7]: more efficient in inhibiting the phosphate transport

B2: PDGF-BB: platelet derived growth factor-BB, negative control protein (protein, UniProt P01127 82-190, looked up)
Platelet-derived growth …: SLGSLTIAEPAMIAECKTRTEVFEISRRLIDRTNANFLVWPPCVEVQRCSGCCNNRNVQCRPTQVQLRPVQVRKIEIVRKKPIFKKATVTLEDHLACKCETVAAARPVT
modifications: homodimer
notes: platelet derived growth factor-BB, negative control protein
- amount of ligand needed to generate a half maximal BrdU response [3]: 3 ng/mL
